Consider 11 compounds from patent US10533006B2, “Nitrogen-containing heterocycle and carbocycle derivatives having TrkA inhibitory activity” (Shionogi & Co., Ltd., priority 2016, dated 2020).

The target of series [1] is T1, hERG channel (IKr) (Homo sapiens, UniProt Q12809).
T1 construct: expressed in transfected cells; host or cells: CHO cells
Nature of the series: hERG test (whole cell patch clamp, IKr). Format: cell-based. As to conditions: CHO cells expressing hERG channel, read-out: % inhibition of tail peak current (IKr); for inhibition at 30 μmol/L: pH 7.4, 30 μmol/L of test compound; for inhibition at 5 μmol/L: pH 7.4, 5 μmol/L of test compound; for inhibition at 10 μmol/L: pH 7.4, 10 μmol/L of test compound. The source says: For the purpose of assessing risk of an electrocardiogram QT interval prolongation of the compound of the present invention, effects of the compound of the present invention on delayed rectifier K+ current (IKr), which plays an important role in the ventricular repolarization process, was studied using CHO cells expressing human ether-a-go-go related gene (hERG) channel.
After a cell was retained at a membrane potential of −80 mV by whole cell patch clamp method using an automated patch clamp system (QPatch; Sophion Bioscience A/S) and gave a leak potential of −50 mV, IKr induced by depolarization pulse stimulation at +20 mV for 2 seconds, and further, repolarization pulse stimulation at −50 mV for 2 seconds, was recorded. A vehicle, which is the 0.1-0.3% dimethyle sulfoxide solution in extracellular solution (NaCl: 145 mmol/L, KCl: 4 mmol/L, CaCl2: 2 mmol/L, MgCl2: 1 mmol/L, glucose: 10 mmol/L, HEPES (4-(2-hydroxyethyl)-1-piperazineethanesulfonic acid): 10 mmol/L, pH7.4), or the compound of the present invention had been dissolved at an objective concentration in the extracellular solution is applied to the cell at room temperature for 7 minutes or more. From the recording IKr, an absolute value of the tail peak current was measured based on the current value at the resting membrane potential using analysis software (QPatch assay software; Sophion Bioscience A/S). Further, the % inhibition of tail peak current for the compound of the present invention relative to the tail peak current after application of the vehicle is calculated to assess influence of the compound of the present invention on IKr.
(In general: Block of hERG is tested as a sign of cardiac risk.)

In series [2] the target is T2, human TrkA (Homo sapiens, UniProt P04629).
T2 construct: purchased Lifetechnologies PV3144
Description: Human TrkA inhibition assay. Format: biochemical. As to conditions: human TrkA phosphorylation inhibition, ATP 500 μmol/L. Put shortly: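 Human TrkA (1 nmol/L final) preincubated 15 min with compound, then FL-peptide 27 (1.5 μmol/L) and ATP (500 μmol/L) added; 120 min at 37 °C in HEPES/MgCl2/DTT buffer. Mobility-shift measurement of phosphorylated vs non-phosphorylated substrate; IC50 by logistic regression over 3-fold dilution series.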

The target in series [3] is T3, CYP3A4 (Homo sapiens, UniProt P08684).
T3 construct: from tissue; host or cells: pooled human liver microsomes
Description: CYP3A4 (MDZ) MBI test. Particulars: pooled human liver microsomes, midazolam 1-hydroxylation, preincubation 0 vs 30 min. Format: in vitro ADME. How it is done: CYP3A4 (MDZ) MBI test is a test of investigating mechanism based inhibition potential on CYP3A4 by the enhancement of inhibitory degree of a metabolic reaction caused by the compound of the present invention. CYP3A4 inhibition was evaluated using pooled human liver microsomes by 1-hydroxylation reaction of midazolam (MDZ) as a marker reaction.
The reaction conditions are as follows: substrate, 10 μmol/L MDZ; pre-reaction time, 0 or 30 minutes; substrate reaction time, 2 minutes; reaction temperature, 37° C.; protein content of pooled human liver microsomes, at pre-reaction time 0.5 mg/mL, at reaction time […] (at 10-fold dilution); concentrations of the compound of the present invention, 1, 5, 10, 20 μmol/L (four points).
Pooled human liver microsomes and a solution of the compound of the present invention in K-Pi buffer (pH 7.4) as a pre-reaction solution were added to a 96-well plate at the composition of the pre-reaction. A part of pre-reaction solution was transferred to another 96-well plate, and 1/10 diluted by K-Pi buffer containing a substrate. NADPH as a co-factor was added to initiate a reaction as a marker reaction (preincubation 0 min). After a predetermined time of a reaction, methanol/acetonitrile=l/1 (v/v) solution was added to stop the reaction. In addition, NADPH was added to a remaining pre-reaction solution to initiate a pre-reaction (preincubation 30 min). After a predetermined time of a pre-reaction, a part was transferred to another 96-well plate, and 1/10 diluted by K-Pi buffer containing a substrate to initiate a reaction as a marker reaction. After a predetermined time of a reaction, methanol/acetonitrile=1/1 (v/v) solution was added to stop the reaction. After centrifuged at 3000 rpm for 15 minutes, 1-hydroxymidazolam in the supernatant was quantified by LC/MS/MS.
The sample adding DMSO as a solvent to a reaction system instead of a solution dissolving the compound of the present invention was adopted as a control (100%). Remaining activity (%) was calculated at each concentration of the compound of the present invention compared to a control, and IC value was calculated by reverse-presumption by a logistic model using a concentration and an inhibition rate. Shifted IC value was calculated as “IC of preincubation at 0 min/IC of preincubation at 30 min”. When a shifted IC is 1.5 or more, this is defined as positive. When a shifted IC is 1.0 or less, this is defined as negative.
Background: Microsomes from liver hold many membrane-bound enzymes, among them those of drug oxidation.

Read-outs that look alike come from different tables or passages of the source.

T2 sequence (P04629 33-796): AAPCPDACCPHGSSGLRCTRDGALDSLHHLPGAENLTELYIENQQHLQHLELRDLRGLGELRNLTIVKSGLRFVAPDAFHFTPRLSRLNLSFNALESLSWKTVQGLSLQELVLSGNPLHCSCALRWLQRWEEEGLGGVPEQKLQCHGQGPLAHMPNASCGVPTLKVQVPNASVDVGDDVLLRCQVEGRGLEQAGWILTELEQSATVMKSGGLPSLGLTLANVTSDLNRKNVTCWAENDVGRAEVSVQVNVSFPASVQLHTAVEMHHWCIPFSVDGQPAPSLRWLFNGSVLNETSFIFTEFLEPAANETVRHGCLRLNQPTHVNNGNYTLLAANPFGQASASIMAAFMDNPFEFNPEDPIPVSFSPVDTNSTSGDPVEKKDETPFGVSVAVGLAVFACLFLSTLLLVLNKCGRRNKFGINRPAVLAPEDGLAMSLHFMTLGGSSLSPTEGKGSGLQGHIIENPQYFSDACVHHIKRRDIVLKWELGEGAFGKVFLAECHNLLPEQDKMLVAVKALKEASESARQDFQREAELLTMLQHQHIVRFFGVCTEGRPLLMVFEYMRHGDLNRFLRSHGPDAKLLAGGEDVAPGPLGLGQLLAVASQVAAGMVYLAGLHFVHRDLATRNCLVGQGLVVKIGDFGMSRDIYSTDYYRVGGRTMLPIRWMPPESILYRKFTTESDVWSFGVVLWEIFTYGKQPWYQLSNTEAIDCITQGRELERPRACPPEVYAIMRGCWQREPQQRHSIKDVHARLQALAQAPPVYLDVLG
T1 sequence (Q12809 whole entry): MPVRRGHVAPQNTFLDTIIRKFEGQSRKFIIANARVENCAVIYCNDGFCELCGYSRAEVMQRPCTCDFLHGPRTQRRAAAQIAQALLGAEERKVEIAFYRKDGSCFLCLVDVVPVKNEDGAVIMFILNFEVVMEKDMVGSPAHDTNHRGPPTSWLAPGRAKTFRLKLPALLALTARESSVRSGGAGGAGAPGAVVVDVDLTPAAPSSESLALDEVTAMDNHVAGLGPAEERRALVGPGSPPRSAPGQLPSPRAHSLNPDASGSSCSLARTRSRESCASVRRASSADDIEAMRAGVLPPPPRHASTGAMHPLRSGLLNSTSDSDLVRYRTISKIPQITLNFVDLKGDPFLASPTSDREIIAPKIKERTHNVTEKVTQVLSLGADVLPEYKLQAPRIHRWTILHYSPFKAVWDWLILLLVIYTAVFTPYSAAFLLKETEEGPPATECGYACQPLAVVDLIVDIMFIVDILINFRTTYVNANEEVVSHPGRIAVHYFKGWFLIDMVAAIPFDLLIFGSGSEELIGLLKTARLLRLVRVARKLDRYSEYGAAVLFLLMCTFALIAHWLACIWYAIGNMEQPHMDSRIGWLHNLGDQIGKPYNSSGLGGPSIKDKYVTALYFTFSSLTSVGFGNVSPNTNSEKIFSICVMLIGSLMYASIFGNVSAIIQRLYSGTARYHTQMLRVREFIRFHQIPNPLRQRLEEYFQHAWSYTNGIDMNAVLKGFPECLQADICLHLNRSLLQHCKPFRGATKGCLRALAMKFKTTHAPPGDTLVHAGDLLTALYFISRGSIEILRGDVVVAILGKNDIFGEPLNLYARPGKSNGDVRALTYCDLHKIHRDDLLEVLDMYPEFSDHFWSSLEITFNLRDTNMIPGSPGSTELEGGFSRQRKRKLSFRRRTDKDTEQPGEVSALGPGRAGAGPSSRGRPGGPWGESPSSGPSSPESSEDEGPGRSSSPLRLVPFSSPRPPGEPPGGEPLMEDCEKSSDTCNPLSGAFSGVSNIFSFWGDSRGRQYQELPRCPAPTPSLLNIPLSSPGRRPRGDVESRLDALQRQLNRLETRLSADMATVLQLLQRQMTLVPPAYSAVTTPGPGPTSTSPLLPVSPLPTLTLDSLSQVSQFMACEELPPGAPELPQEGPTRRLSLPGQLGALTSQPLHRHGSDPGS
T3 sequence (P08684 whole entry): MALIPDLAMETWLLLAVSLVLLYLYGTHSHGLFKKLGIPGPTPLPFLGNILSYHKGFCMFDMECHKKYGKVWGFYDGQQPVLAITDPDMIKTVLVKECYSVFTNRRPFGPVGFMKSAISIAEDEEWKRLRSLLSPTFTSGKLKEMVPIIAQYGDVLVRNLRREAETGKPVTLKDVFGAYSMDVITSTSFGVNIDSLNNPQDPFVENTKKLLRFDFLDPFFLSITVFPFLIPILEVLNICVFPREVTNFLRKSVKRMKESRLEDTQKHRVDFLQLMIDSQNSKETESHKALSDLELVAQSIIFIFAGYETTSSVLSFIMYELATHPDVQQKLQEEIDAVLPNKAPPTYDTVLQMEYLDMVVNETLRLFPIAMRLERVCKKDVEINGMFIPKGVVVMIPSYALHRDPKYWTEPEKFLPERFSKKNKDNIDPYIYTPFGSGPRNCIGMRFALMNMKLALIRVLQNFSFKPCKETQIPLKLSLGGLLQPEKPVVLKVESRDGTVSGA

With `COCCN1C[C@@H](NC(=O)Nc2c(C)c(-c3cnn(C)c3)nn2-c2ccccc2)[C@H](c2cnc(F)c(F)c2)C1` (racemic) [Compound I-5], the inhibition at 30 μmol/L in series [1] was 35.3%. Moreover, the IC50 in series [2] (read-out: IC50_nM) is less than 0.1 µM. Moreover, in series [3], the “mechanism based inhibition of CYP3A4 (shifted IC)” value was “Negative (When a shifted IC is 1.0 or less, this is defined as negative)”.

Take `COCCN1C[C@@H](NC(=O)Nc2c(C)c(-c3cnc(CO)nc3)nn2-c2ccccc2)[C@H](c2ccccc2)C1` (racemic) [Compound I-10]: the inhibition at 5 μmol/L in series [1] is 34.6%. Also, the IC50 in series [2] (read-out: IC50_nM) is less than 0.1 µM.

With `CCN1CCC(NC(=O)c2cc(-c3nn(-c4ccccc4)c(NC(=O)N[C@@H]4C[C@@H](CCOC)N(C)[C@H]4c4ccc(F)c(F)c4)c3C)ccn2)CC1` [Compound I-66], the inhibition at 5 μmol/L in series [1] amounted to 22.6%. Further, the IC50 in series [2] (read-out: IC50_nM) is less than 0.1 µM.

Regarding `CCN1CCC(NC(=O)c2cc(-c3nn(-c4ccccc4)c(NC(=O)N[C@@H]4C[C@@H](CCOC)C[C@H]4c4ccccc4)c3C)ccn2)CC1` [Compound I-67], the inhibition at 5 μmol/L in series [1] worked out at 16.3%. In addition, the IC50 in series [2] (read-out: IC50_nM) was less than 0.1 µM.

Take `COCC[C@@H]1C[C@@H](NC(=O)Nc2c(C)c(-c3cnn(C)c3)nn2-c2ccccc2)[C@H](c2ccnc(F)c2)N1C` [Compound I-68]: the inhibition at 30 μmol/L in series [1] is 12.8%. The IC50 in series [2] (read-out: IC50_nM) was less than 0.1 µM. For the same compound, the “mechanism based inhibition of CYP3A4 (shifted IC)” value in series [3] is “Negative (When a shifted IC is 1.0 or less, this is defined as negative)”.

Regarding `COCC[C@@H]1C[C@@H](NC(=O)Nc2c(C)c(-c3cnc(OC)nc3)nn2-c2ccccc2)[C@H](c2ccnc(F)c2)N1C` [Compound I-92], in series [1], the inhibition at 30 μmol/L was 19.3%. In series [2] (read-out: IC50 value), the IC50 worked out at 0.00074 µM.

In the case of `CCOc1ncc(-c2nn(-c3ccccc3)c(NC(=O)N[C@@H]3C[C@@H](CCOC)N(C)[C@H]3c3ccnc(F)c3)c2C)cn1` [Compound I-93], the inhibition at 5 μmol/L in series [1] amounted to 11.6%. Also, in series [2] (read-out: IC50_nM), the IC50 was less than 0.1 µM.

On to `COCC[C@@H]1C[C@@H](NC(=O)Nc2c(C)c(-c3cnc(C)nc3)nn2-c2ccccc2)[C@H](c2ccnc(F)c2)C1` [Compound I-164], for which the IC50 in series [2] (read-out: IC50 value) was found to be 0.0018 µM. For the same compound, in series [3], the “mechanism based inhibition of CYP3A4 (shifted IC)” value was “Negative (When a shifted IC is 1.0 or less, this is defined as negative)”.

As to `CCOc1ncc(-c2nn(-c3ccccc3)c(NC(=O)N[C@@H]3C[C@@H](CCOC)C[C@H]3c3ccc(F)c(F)c3)c2C)cn1` [Compound I-169], the inhibition at 10 μmol/L in series [1] came out at 21%. The IC50 in series [2] (read-out: IC50_nM) is less than 0.1 µM.

As to `COCC[C@@H]1C[C@@H](NC(=O)Nc2c(C)c(-c3cnc(C)nc3)nn2-c2ccccc2)[C@H](c2ccnc(F)c2)N1C` [Compound I-173], the IC50 in series [2] (read-out: IC50 value) worked out at 0.00092 µM. For the same compound, the “mechanism based inhibition of CYP3A4 (shifted IC)” value in series [3] is reported as “Negative (When a shifted IC is 1.0 or less, this is defined as negative)”.

`CCOc1ncc(-c2nn(-c3ccccc3)c(NC(=O)N[C@@H]3C[C@@H](CCOC)N(C)[C@H]3c3ccc(F)c(F)c3)c2C)cn1` [Compound I-174]: the inhibition at 10 μmol/L in series [1] was determined as 33.6%. In addition, the IC50 in series [2] (read-out: IC50_nM) was less than 0.1 µM.

For orientation: inhibition means the change of the read-out against control, counted positive when it falls.
